Structures are written as SMILES. Where two headings read alike, the source gives them in different places.

Assay [1] addresses T1, pantothenate kinase (PanK, Cab1) (Saccharomyces cerevisiae, UniProt Q04430).
T1 construct: wild-type Cab1 expressed from pSBS5 in yeast strain JS91.14-24, partially purified on DEAE sepharose
T1 sequence (Q04430 1-367): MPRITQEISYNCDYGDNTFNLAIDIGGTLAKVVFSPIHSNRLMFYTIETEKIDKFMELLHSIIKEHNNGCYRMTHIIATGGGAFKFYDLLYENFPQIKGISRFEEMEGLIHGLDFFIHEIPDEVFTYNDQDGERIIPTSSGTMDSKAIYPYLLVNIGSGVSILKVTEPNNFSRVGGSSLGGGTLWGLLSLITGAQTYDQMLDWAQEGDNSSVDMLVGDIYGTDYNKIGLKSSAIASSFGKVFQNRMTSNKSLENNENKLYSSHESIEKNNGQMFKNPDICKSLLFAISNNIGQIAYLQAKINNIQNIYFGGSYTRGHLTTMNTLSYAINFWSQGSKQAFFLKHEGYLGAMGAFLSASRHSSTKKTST
Kind of assay: radiometric PanK assay with D-[[…]-14C]pantothenate, partially purified enzyme. The assay is classed as biochemical.

The target of assay [2] is T2, pantothenate kinase PanK3 (murine) (Mus musculus, UniProt Q8R2W9).
T2 construct: murine wild-type PanK3 expressed from pJO73 in yeast strain JS91.14-24, partially purified on DEAE sepharose
T2 sequence (Q8R2W9 1-370): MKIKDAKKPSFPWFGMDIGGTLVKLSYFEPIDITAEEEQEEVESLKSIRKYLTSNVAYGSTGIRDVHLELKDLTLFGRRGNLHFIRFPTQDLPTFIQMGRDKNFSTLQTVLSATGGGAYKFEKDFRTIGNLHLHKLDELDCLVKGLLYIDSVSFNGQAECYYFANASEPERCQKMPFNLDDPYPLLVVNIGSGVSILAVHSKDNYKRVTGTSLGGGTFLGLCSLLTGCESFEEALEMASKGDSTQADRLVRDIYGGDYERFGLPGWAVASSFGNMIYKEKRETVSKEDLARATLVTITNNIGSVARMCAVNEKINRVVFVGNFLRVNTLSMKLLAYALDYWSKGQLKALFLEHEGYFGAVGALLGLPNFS
Described as above. Format: biochemical.

What is called IC50 is the midpoint of a concentration-inhibition curve. With `CCCCCCCCCCCCCCCC(=O)SCCNC(=O)CCNC(=O)[C@H](O)C(C)(C)COP(=O)(O)OP(=O)(O)OC[C@H]1O[C@@H](n2cnc3c(N)ncnc32)[C@H](O)[C@@H]1OP(=O)(O)O` [palmitoyl-CoA], the 50% inhibitory concentration (IC50) in assay [1] (read-out: IC50) came out at 891 µM. In the case of `CC(=O)SCCNC(=O)CCNC(=O)[C@H](O)C(C)(C)COP(=O)(O)OP(=O)(O)OC[C@H]1O[C@@H](n2cnc3c(N)ncnc32)[C@H](O)[C@@H]1OP(=O)(O)O` [acetyl-CoA], the IC50 in assay [2] is 1 µM; in assay [1] it was 36 µM. As to `CC(C)(COP(=O)(O)OP(=O)(O)OC[C@H]1O[C@@H](n2cnc3c(N)ncnc32)[C@H](O)[C@@H]1OP(=O)(O)O)[C@@H](O)C(=O)NCCC(=O)NCCS` [Coenzyme A], the IC50 in assay [1] (read-out: IC50) turned out to be 283 µM. `CC(C)(COP(=O)(O)OP(=O)(O)OC[C@H]1O[C@@H](n2cnc3c(N)ncnc32)[C@H](O)[C@@H]1OP(=O)(O)O)[C@@H](O)C(=O)NCCC(=O)NCCSC(=O)CC(=O)O` [malonyl-CoA] had an IC50 in assay [1] of 812 µM.

These data come from paper PMC8494682 (Applied Microbiology and Biotechnology, 2021).
